Experimental data from patent publication US7557113B2, “Substituted pyrrolo[3,2-d]pyrimidine derivatives” (Teijin Pharma Limited, priority 2003, dated 2009).

molecular target: recombinant human GSK-3β (Homo sapiens, UniProt P49841); assay: Determination of Inhibition of GSK-3 Activity (phospho-glycogen synthase peptide-2 phosphorylation, [γ-33P]ATP, scintillation counting); type: biochemical; conditions: group stated as 20 nM<IC50<100 nM; read-out: GSK-3 inhibitor activity values (IC50 values)
Protocol: The reaction was initiated by adding 25 μL of phospho-glycogen synthase peptide-2 substrate solution [containing 6 μM phospho-glycogen synthase peptide-2, 20 μM ATP, 16 mM MOPS buffer (pH 7.0), 0.2 mM EDTA, 20 mM magnesium acetate, 0.1 μ Ci[γ-^33P]ATP (relative activity: approximately 110 TBq/mmol)] to 5 μL of each test compound using 5% dimethylsulfoxide as a solvent, and further adding 20 μL of GSK-3β enzyme solution [containing 10 mU recombinant human GSK-3β, 20 mM MOPS buffer (pH 7.0), 1 mM EDTA, 0.1% polyoxyethylene lauryl ether(23 Lauryl Ether; Brij 35), 5% glycerol, and 0.1% β-mercaptoethanol. After 20 minutes at room temperature, the reaction was terminated by the addition of the equivalent amount of 200 mM phosphoric acid solution. 90 μL of the reaction product was spotted onto a multiscreen PH plate (manufactured by Millipore) and washed with 100 mM phosphoric acid solution. The plate was dried, and 30 μL of MicroScint-O (manufactured by Packard BioScience) was added thereto. To evaluate inhibitory activity, cpm was counted using a scintillation counter. Here, Phospho GS Peptide 2 is an amino acid peptide having the following sequence: […]P)-Glu-Asp-Glu-Glu-Glu.

Chain of recombinant human GSK-3β (P49841 whole entry): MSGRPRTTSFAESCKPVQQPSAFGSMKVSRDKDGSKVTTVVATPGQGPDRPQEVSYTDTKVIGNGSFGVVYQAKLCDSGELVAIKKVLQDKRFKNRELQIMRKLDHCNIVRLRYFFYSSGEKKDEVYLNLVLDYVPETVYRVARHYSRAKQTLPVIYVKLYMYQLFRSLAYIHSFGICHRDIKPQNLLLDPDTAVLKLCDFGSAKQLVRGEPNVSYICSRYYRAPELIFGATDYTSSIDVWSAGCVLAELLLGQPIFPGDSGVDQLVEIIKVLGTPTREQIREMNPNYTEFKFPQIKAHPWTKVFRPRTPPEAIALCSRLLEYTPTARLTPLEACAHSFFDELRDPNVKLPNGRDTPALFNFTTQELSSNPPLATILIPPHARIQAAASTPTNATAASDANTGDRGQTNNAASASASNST

Row | Structure (SMILES) | IC50
1 | Cc1ccc(CNC(=O)CCCn2c(C3CC3)c(-c3cccnc3)c3nc[nH]c(=O)c32)cc1 [Compound 2331, 4-(6-cyclopropyl-4-oxo-7-(3-pyridyl)(3-hydropyrrolo[3,2-d]pyrimidin-5-yl))-N-[(4-methylphenyl)methyl]butanamide] | 20 to 100 nM
2 | O=C(NCCn1c(-c2sccc2Cl)c(-c2cccnc2)c2nc[nH]c(=O)c21)Nc1ccccc1 [Compound 793, 1-{2-[6-(3-chloro-thiophen-2-yl)-4-oxo-7-pyridin-3-yl-3-hydropyrrolo[3,2-d]pyrimidin-5-yl]ethyl}-3-phenylurea] | 20 to 100 nM
3 | CC(C)(C)CC(=O)NCCn1c(-c2sccc2Cl)c(-c2cccnc2)c2nc[nH]c(=O)c21 [Compound 626, N-{2-[6-(3-chloro-thiophen-2-yl)-4-oxo-7-pyridin-3-yl-3-hydropyrrolo[3,2-d]pyrimidin-5-yl]ethyl}-t-butylacetylamide] | 20 to 100 nM
4 | CC(=O)NCCn1c(-c2sccc2Cl)c(-c2cccnc2)c2nc[nH]c(=O)c21 [Compound 217, N-{2-[6-(3-chloro(2-thienyl))-4-oxo-7-(3-pyridyl)-3-hydropyrrolo[3,2-d]pyrimidin-5-yl]ethyl}acetamide] | 20 to 100 nM
5 | Cc1ccc(CNC(=O)CCCn2c(C3CC3)c(-c3cnn(C)c3)c3nc[nH]c(=O)c32)cc1 [Compound 2332, 4-[6-cyclopropyl-7-(1-methylpyrazol-4-yl)-4-oxo-(3-hydropyrrolo[3,2-d]pyrimidin-5-yl)]-N-[(4-methylphenyl)methyl]butanamide] | 20 to 100 nM

same assay, conditions: group stated as IC50<100 nM; read-out: GSK-3 inhibitor activity values (IC50 values)

Row | Structure (SMILES) | IC50
6 | CC(C)(C)CC(=O)NCCn1c(-c2sccc2Cl)c(-c2cn[nH]c2)c2nc[nH]c(=O)c21 [Compound 629, N-{2-[7-(1H-pyrazol-4-yl)-6-(3-chloro-thiophen-2-yl)-4-oxo-3-hydropyrrolo[3,2-d]pyrimidin-5-yl]ethyl}-t-butylacetylamide] | < 100 nM
